Measured values as given in PubChem BioAssay AID1963982 (Molecular Pharmacology Branch, DTP, NCI, 2024).

Test system: 313798-341-R-J2-PDC spheroids, viability
Assay: Anticancer human tumor 313798-341-R-J2-PDC patient-derived cervical squamous cell carcinoma cell line growth inhibition [PI3K]
Conditions: spheroids with HUVEC and MSC; for viability, T/C: stronger effect = lower value
In short: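 Agents were dosed from a top concentration near clinical Cmax (otherwise 10 microM) in half-log decrements, alone or combined with PI3K inhibitors. The spheroids contain tumor cells plus endothelial (HUVEC) and MSC stroma; viability is measured.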
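Note: spheroids exposed to compounds for seven days.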
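Throughout, for viability, T/C: 100% = DMSO vehicle control viability.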

**Q.** How did the IC50 (curve of first compound, second compound 0.00316 µM) turn out when Cn1ncnc1[C@H]1c2n[nH]c(=O)c3cc(F)cc(c23)N[C@@H]1c1ccc(F)cc1 + COc1c(OCCCN2CCOCC2)ccc2c3n(c(=NC(=O)c4cnc(N)nc4)nc12)CCN3 was run?
**A.** Its IC50 is > 0.1 µM.

**Q.** What about the IC50 (curve of first compound, second compound 0.01 µM) of the same compound?
**A.** Its IC50 is > 0.1 µM.

**Q.** What about the IC50 (curve of first compound, second compound 0.0316 µM) of the same compound?
**A.** Its IC50 is > 0.1 µM.

**Q.** What about the IC50 (curve of first compound, second compound 0.1 µM) of the same compound?
**A.** Its IC50 is < 0.000316 µM.

**Q.** And the IC50 (curve of first compound, second compound 0.316 µM)?
**A.** The IC50 was < 0.000316 µM.

**Q.** What about the IC50 (curve of first compound, second compound 1 µM) of the same compound?
**A.** The IC50 was < 0.000316 µM.

**Q.** What about the viability, T/C (second compound 0.00316 µM, first compound 0.000316 µM) of the same compound?
**A.** The viability, T/C was 97.5%.

**Q.** And the viability, T/C (second compound 0.00316 µM, first compound 0.001 µM)?
**A.** The viability, T/C was 95.9%.

**Q.** What about the viability, T/C (second compound 0.00316 µM, first compound 0.00316 µM) of the same compound?
**A.** The viability, T/C was 107%.

**Q.** And the viability, T/C (second compound 0.00316 µM, first compound 0.01 µM)?
**A.** Its viability, T/C is 111%.

**Q.** And the viability, T/C (second compound 0.00316 µM, first compound 0.0316 µM)?
**A.** The viability, T/C was 97.9%.

**Q.** What about the viability, T/C (second compound 0.00316 µM, first compound 0.1 µM) of the same compound?
**A.** Its viability, T/C is 93.1%.

**Q.** And the viability, T/C (second compound 0.01 µM, first compound 0.000316 µM)?
**A.** The viability, T/C was 106%.

**Q.** And the viability, T/C (second compound 0.01 µM, first compound 0.001 µM)?
**A.** Its viability, T/C is 107%.

**Q.** And the viability, T/C (second compound 0.01 µM, first compound 0.00316 µM)?
**A.** The viability, T/C was 99%.

**Q.** What about the viability, T/C (second compound 0.01 µM, first compound 0.01 µM) of the same compound?
**A.** Its viability, T/C is 89.6%.

**Q.** What about the viability, T/C (second compound 0.01 µM, first compound 0.0316 µM) of the same compound?
**A.** The viability, T/C was 87.9%.

**Q.** What about the viability, T/C (second compound 0.01 µM, first compound 0.1 µM) of the same compound?
**A.** Its viability, T/C is 87.3%.

**Q.** What about the viability, T/C (second compound 0.0316 µM, first compound 0.000316 µM) of the same compound?
**A.** Its viability, T/C is 68.4%.

**Q.** What about the viability, T/C (second compound 0.0316 µM, first compound 0.001 µM) of the same compound?
**A.** Its viability, T/C is 97.1%.

**Q.** And the viability, T/C (second compound 0.0316 µM, first compound 0.00316 µM)?
**A.** The viability, T/C was 75.8%.

**Q.** What about the viability, T/C (second compound 0.0316 µM, first compound 0.01 µM) of the same compound?
**A.** Its viability, T/C is 71.5%.

**Q.** What about the viability, T/C (second compound 0.0316 µM, first compound 0.0316 µM) of the same compound?
**A.** The viability, T/C was 64.2%.

**Q.** What about the viability, T/C (second compound 0.0316 µM, first compound 0.1 µM) of the same compound?
**A.** The viability, T/C was 65.1%.

**Q.** What about the viability, T/C (second compound 0.1 µM, first compound 0.000316 µM) of the same compound?
**A.** Its viability, T/C is 39.6%.

**Q.** And the viability, T/C (second compound 0.1 µM, first compound 0.001 µM)?
**A.** Its viability, T/C is 49.8%.

**Q.** And the viability, T/C (second compound 0.1 µM, first compound 0.00316 µM)?
**A.** Its viability, T/C is 46.6%.

**Q.** And the viability, T/C (second compound 0.1 µM, first compound 0.01 µM)?
**A.** Its viability, T/C is 43.6%.

**Q.** What about the viability, T/C (second compound 0.1 µM, first compound 0.0316 µM) of the same compound?
**A.** Its viability, T/C is 42.4%.

**Q.** What about the viability, T/C (second compound 0.1 µM, first compound 0.1 µM) of the same compound?
**A.** Its viability, T/C is 37.1%.

**Q.** What about the viability, T/C (second compound 0.316 µM, first compound 0.000316 µM) of the same compound?
**A.** The viability, T/C was 17.3%.

**Q.** And the viability, T/C (second compound 0.316 µM, first compound 0.001 µM)?
**A.** Its viability, T/C is 18.4%.

**Q.** What about the viability, T/C (second compound 0.316 µM, first compound 0.00316 µM) of the same compound?
**A.** Its viability, T/C is 15.1%.

**Q.** What about the viability, T/C (second compound 0.316 µM, first compound 0.01 µM) of the same compound?
**A.** Its viability, T/C is 15.7%.

**Q.** What about the viability, T/C (second compound 0.316 µM, first compound 0.0316 µM) of the same compound?
**A.** The viability, T/C was 12.8%.

**Q.** What about the viability, T/C (second compound 0.316 µM, first compound 0.1 µM) of the same compound?
**A.** The viability, T/C was 15.7%.

**Q.** And the viability, T/C (second compound 1 µM, first compound 0.000316 µM)?
**A.** The viability, T/C was 11.8%.

**Q.** And the viability, T/C (second compound 1 µM, first compound 0.001 µM)?
**A.** Its viability, T/C is 14.1%.

**Q.** And the viability, T/C (second compound 1 µM, first compound 0.00316 µM)?
**A.** The viability, T/C was 14.5%.

**Q.** And the viability, T/C (second compound 1 µM, first compound 0.01 µM)?
**A.** The viability, T/C was 12.5%.

**Q.** And the viability, T/C (second compound 1 µM, first compound 0.0316 µM)?
**A.** Its viability, T/C is 13.9%.

**Q.** What about the viability, T/C (second compound 1 µM, first compound 0.1 µM) of the same compound?
**A.** The viability, T/C was 10.1%.

**Q.** Which results are given for C#Cc1c(F)ccc2cc(O)cc(-c3ncc4c(N5CC6CCC(C5)N6)nc(OCC56CCCN5CC(F)C6)nc4c3F)c12 (centres undefined)?
**A.** viability, T/C (compound 0.0316 µM): 102% [middle of 4 runs]; viability, T/C (compound 0.1 µM): 105% [middle of 4 runs]; viability, T/C (compound 0.316 µM): 108% [middle of 4 runs]; viability, T/C (compound 1 µM): 98.5% [middle of 4 runs]; viability, T/C (compound 3.16 µM): 106% [middle of 4 runs]; viability, T/C (compound 10 µM): 95.2% [middle of 4 runs]; IC50 (curve of compound): > 10 µM
